Experimental findings from patent US20230257366A1, “SULFUR-CONTAINING ISOINDOLINE DERIVATIVE, AND PREPARATION METHOD THEREFOR AND MEDICAL USE THEREOF” (JIANGSU HENGRUI PHARMACEUTICALS CO., LTD., priority 2020, published 2023) are described below.

A word on the AUC: it is concentration integrated over time. By half-life is commonly meant the time in which the quantity being followed falls by half. Broadly, the MRT is a mean duration of stay, worked out from the concentration-time curve.

Data set [1] is described as follows: Pharmacokinetic evaluation in mice after intragastric administration (LC/MS/MS). It counts as in vivo. The conditions noted are these: female, mouse, plasma, po, mice, intragastric, 2 mg/kg. The procedure: The drug concentration in the plasma of the test animals (mice) at different time points after intragastric administration of the compound of Example 6 and the control example CC-92480 was determined by an LC/MS/MS method. The pharmacokinetic behavior of the compound of the present disclosure in mice was studied and its pharmacokinetic profile was evaluated.
Compound of Example 6 and control example CC-92480.
Eighteen mice, female, purchased from Beijing Vital River Laboratory Animal Technology Co., Ltd., with animal production license number of SCXK (Shanghai) 2017-0005.
A certain amount of compound of Example 6 was weighed, dissolved by adding 5% by volume of DMSO and 5% Tween 80 (Shanghai Titan Scientific Co., Ltd.), and then prepared into a 0.1 mg/mL clear solution by adding 90% normal saline.
A certain amount of the control example CC-92480 was weighed, dissolved by adding 5% by volume of DMSO and 5% Tween 80 (Shanghai Titan Scientific Co., Ltd.), and then prepared into a 0.1 mg/mL clear solution by adding 90% normal saline.
Nine mice were intragastrically administered with the compound of Example 6 at a dose of 2 mg/kg and at a volume of 0.2 mL/10 g.
Nine mice were intragastrically administered with the control example CC-92480 at a dose of 2 mg/kg and at a volume of 0.2 mL/10 g.
Mice were intragastrically administered with the compound of Example 6 and the control example CC-92480, and 0.2 mL of blood was collected before the administration and 0.25 h, 0.5 h, 1.0 h, 2.0 h, 4.0 h, 6.0 h, 8.0 h, 11.0 h and 24.0 h after the administration (3 animals at each time point), placed in EDTA-K2 anticoagulation tubes, and centrifuged at 10,000 rpm for 1 min(4° C.). Plasma was separated within 1 h, and stored at −20° C. for testing. The process from blood collection to centrifugation was performed under an ice bath.
The content of the test compounds at different concentrations in mouse plasma after the administration was determined: 25 μL of mouse plasma at each time point after the administration was mixed with 50 μL (100 ng/mL) of internal standard solution camptothecin (National Institutes for Drug Control) and 175 μL of acetonitrile. The mixture was vortexed for 5 min and centrifuged for 10 min (3700 rpm/min), and 1 μL of the supernatant of the plasma sample was taken for LC/MS/MS assay (API4000 triple quadrupole tandem mass spectrometer, Applied Biosystems, USA; Shimadzu, LC-30AD ultra high performance liquid chromatography system, Shimadzu, Japan).

The nature of data set [2]: Effect on body weight of tumor-bearing CB-17 SCID mice. As to conditions: 1 mg/kg qd, 11 days. The data set is classed as in vivo. The protocol:
NCI-H929 cells in a logarithmic growth phase were inoculated subcutaneously into the right flank of 30 female CB-17 SCID mice at 5×10^6 cells/mouse/100 μL (containing 50 μL of Matrigel). After 10 days, when the tumor volume of the tumor-bearing mice reached about 200 mm^3, the mice were randomly divided into 3 groups according to the tumor volume and body weight: vehicle control group, CC-92480-1 mpk, compound of Example 6-1 mpk, with 7 mice in each group. The day of grouping was set as Day 0 (D0), and intragastric administration was performed once a day for 11 days (Table 2). For the tumor-bearing mice, the tumor volume was measured with a vernier caliper and the body weight was measured with a balance twice a week, and the data were recorded.
The effect of the compound of Example 6 and the control example CC-92480 on the body weight of CB-17 SCID mice is shown in FIG. 2.

With `N#Cc1ccc(N2CCC(Sc3ccc(COc4cccc5c4CN([C@H]4CCC(=O)NC4=O)C5=O)cn3)CC2)c(F)c1` [Compound 6, (S)-4-(4-((5-(((2-(2,6-dioxopiperidin-3-yl)-1-oxoisoindolin-4-yl)oxy)methyl)pyridin-2-yl)thio)piperidin-1-yl)-3-fluorobenzonitrile], the Vd/F in data set [1] (read-out: Apparent volume of distribution Vz/F) is 1.79 L/kg. In addition, in data set [1] (read-out: Area under curve AUC), the area under the curve (AUC) worked out at 4690 ng·h/mL. Moreover, in data set [1] (read-out: Clearance CL/F), the CL/F turned out to be 7.1 mL/min/kg. Further, the half-life in data set [1] (read-out: Half-life T½ (converted)) was 2.9 h. In data set [1] (read-out: Plasma concentration Cmax), the Cmax stood at 799 ng/mL. In addition, in data set [1] (read-out: Residence time MRT), the MRT was determined as 4.6 h. In data set [2], the “influence on the body weight of mice” value is “no influence on the body weight of mice”.
